# In patent US10251395B2, “Substituted furano-/thienocycloalkylamino-2-pyrimidine derivatives and use thereof for controlling undesired plant growth” (Bayer CropScience Aktiengesellschaft, priority 2015, dated 2019):
# Assays:
# Viola tricolor [1] = experiment: Pre-emergence herbicidal effect; type: in vivo; conditions: scored visually after 3 weeks
# Outline: (§1)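 Seeds in sandy loam were covered with soil and treated pre-emergence with WP or EC formulations applied as aqueous spray with 0.2% wetting agent. Percent damage was scored visually after 3 weeks relative to untreated controls.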
# Amaranthus retroflexus [2] = experiment: Pre-emergence herbicidal effect; type: in vivo; conditions: scored visually after 3 weeks
# Outline: as §1
# Matricaria inodora [3] = experiment: Pre-emergence herbicidal effect; type: in vivo; conditions: scored visually after 3 weeks
# Outline: as §1
# Echinochloa crus-galli [4] = experiment: Pre-emergence herbicidal effect; type: in vivo; conditions: scored visually after 3 weeks
# Outline: as §1
# Stellaria media [5] = experiment: Pre-emergence herbicidal effect; type: in vivo; conditions: scored visually after 3 weeks
# Outline: as §1
# Setaria viridis [6] = experiment: Pre-emergence herbicidal effect; type: in vivo; conditions: scored visually after 3 weeks
# Outline: as §1
# Abutilon theophrasti [7] = experiment: Pre-emergence herbicidal effect; type: in vivo; conditions: scored visually after 3 weeks
# Outline: as §1
# Alopecurus myosuroides [8] = experiment: Pre-emergence herbicidal effect; type: in vivo; conditions: scored visually after 3 weeks
# Outline: as §1
# Lolium multiflorum [9] = experiment: Pre-emergence herbicidal effect; type: in vivo; conditions: scored visually after 3 weeks
# Outline: as §1
# Polygonum convolvulus [10] = experiment: Pre-emergence herbicidal effect; type: in vivo; conditions: scored visually after 3 weeks
# Outline: as §1
# Avena fatua [11] = experiment: Pre-emergence herbicidal effect; type: in vivo; conditions: scored visually after 3 weeks
# Outline: as §1
# Veronica persica [12] = experiment: Pre-emergence herbicidal effect; type: in vivo; conditions: scored visually after 3 weeks
# Outline: as §1
# Ipomoea purpurea = experiment: Post-emergence herbicidal effect; type: in vivo; conditions: assessed visually after about 3 weeks vs untreated controls
# Outline: (§2)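 Ratings are visual percentages taken around 3 weeks after treatment, compared with untreated plants. Treatment consisted of an aqueous spray of WP or EC formulations, with 0.2% wetting agent, onto one-leaf-stage weeds raised from seed in sandy loam.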
# Viola tricolor [13] = experiment: Post-emergence herbicidal effect; type: in vivo; conditions: assessed visually after about 3 weeks vs untreated controls
# Outline: as §2
# Amaranthus retroflexus [14] = experiment: Post-emergence herbicidal effect; type: in vivo; conditions: assessed visually after about 3 weeks vs untreated controls
# Outline: as §2
# Matricaria inodora [15] = experiment: Post-emergence herbicidal effect; type: in vivo; conditions: assessed visually after about 3 weeks vs untreated controls
# Outline: as §2
# Echinochloa crus-galli [16] = experiment: Post-emergence herbicidal effect; type: in vivo; conditions: assessed visually after about 3 weeks vs untreated controls
# Outline: as §2
# Stellaria media [17] = experiment: Post-emergence herbicidal effect; type: in vivo; conditions: assessed visually after about 3 weeks vs untreated controls
# Outline: as §2
# Setaria viridis [18] = experiment: Post-emergence herbicidal effect; type: in vivo; conditions: assessed visually after about 3 weeks vs untreated controls
# Outline: as §2
# Abutilon theophrasti [19] = experiment: Post-emergence herbicidal effect; type: in vivo; conditions: assessed visually after about 3 weeks vs untreated controls
# Outline: as §2
# Alopecurus myosuroides [20] = experiment: Post-emergence herbicidal effect; type: in vivo; conditions: 320 g/ha, assessed visually after about 3 weeks vs untreated controls
# Outline: as §2
# Polygonum convolvulus [21] = experiment: Post-emergence herbicidal effect; type: in vivo; conditions: assessed visually after about 3 weeks vs untreated controls
# Outline: as §2
# Avena fatua [22] = experiment: Post-emergence herbicidal effect; type: in vivo; conditions: 320 g/ha, assessed visually after about 3 weeks vs untreated controls
# Outline: as §2
# Veronica persica [23] = experiment: Post-emergence herbicidal effect; type: in vivo; conditions: assessed visually after about 3 weeks vs untreated controls
# Outline: as §2
# logP (HCOOH) = type: physicochemical; conditions: HCOOH
# Excerpt: Table 2 (physicochemical characterization of selected synthesis examples)
# Lolium multiflorum [24] = experiment: Post-emergence herbicidal effect; type: in vivo; conditions: 320 g/ha, assessed visually after about 3 weeks vs untreated controls
# Outline: as §2
smiles,measurement,setting,value
Cc1cc2c(s1)CCCC2Nc1ncc(C(F)(F)F)c(N)n1 (racemic) [compound 11],VIOTR pre-emergence efficacy (herbicidal activity),Viola tricolor [1]; Dosage 80 g/ha,100%
same,VIOTR pre-emergence efficacy (herbicidal activity),Viola tricolor [1]; Dosage 320 g/ha,100%
same,AMARE pre-emergence efficacy (herbicidal activity),Amaranthus retroflexus [2]; Dosage 80 g/ha,100%
same,AMARE pre-emergence efficacy (herbicidal activity),Amaranthus retroflexus [2]; Dosage 320 g/ha,100%
same,MATIN pre-emergence efficacy (herbicidal activity),Matricaria inodora [3]; Dosage 80 g/ha,100%
same,MATIN pre-emergence efficacy (herbicidal activity),Matricaria inodora [3]; Dosage 320 g/ha,100%
same,ECHCG pre-emergence efficacy (herbicidal activity),Echinochloa crus-galli [4]; Dosage 80 g/ha,100%
same,ECHCG pre-emergence efficacy (herbicidal activity),Echinochloa crus-galli [4]; Dosage 320 g/ha,100%
same,STEME pre-emergence efficacy (herbicidal activity),Stellaria media [5]; Dosage 80 g/ha,100%
same,STEME pre-emergence efficacy (herbicidal activity),Stellaria media [5]; Dosage 320 g/ha,100%
same,SETVI pre-emergence efficacy (herbicidal activity),Setaria viridis [6]; Dosage 80 g/ha,100%
same,SETVI pre-emergence efficacy (herbicidal activity),Setaria viridis [6]; Dosage 320 g/ha,100%
same,ABUTH pre-emergence efficacy (herbicidal activity),Abutilon theophrasti [7]; Dosage 80 g/ha,100%
same,ALOMY pre-emergence efficacy (herbicidal activity),Alopecurus myosuroides [8]; Dosage 80 g/ha,90%
same,ALOMY pre-emergence efficacy (herbicidal activity),Alopecurus myosuroides [8]; Dosage 320 g/ha,100%
same,LOLMU pre-emergence efficacy (herbicidal activity),Lolium multiflorum [9]; Dosage 80 g/ha,100%
same,LOLMU pre-emergence efficacy (herbicidal activity),Lolium multiflorum [9]; Dosage 320 g/ha,100%
same,POLCO pre-emergence efficacy (herbicidal activity),Polygonum convolvulus [10]; Dosage 80 g/ha,100%
same,POLCO pre-emergence efficacy (herbicidal activity),Polygonum convolvulus [10]; Dosage 320 g/ha,100%
same,AVEFA pre-emergence efficacy (herbicidal activity),Avena fatua [11]; Dosage 80 g/ha,60%
same,AVEFA pre-emergence efficacy (herbicidal activity),Avena fatua [11]; Dosage 320 g/ha,90%
same,VERPE pre-emergence efficacy (herbicidal activity),Veronica persica [12]; Dosage 80 g/ha,100%
same,VERPE pre-emergence efficacy (herbicidal activity),Veronica persica [12]; Dosage 320 g/ha,100%
same,post-emergence efficacy PHBPU,Ipomoea purpurea; 80 g/ha,90%
same,post-emergence efficacy PHBPU,Ipomoea purpurea; 320 g/ha,90%
same,post-emergence efficacy VIOTR,Viola tricolor [13]; 80 g/ha,100%
same,post-emergence efficacy VIOTR,Viola tricolor [13]; 320 g/ha,100%
same,post-emergence efficacy AMARE,Amaranthus retroflexus [14]; 80 g/ha,90%
same,post-emergence efficacy AMARE,Amaranthus retroflexus [14]; 320 g/ha,90%
same,post-emergence efficacy MATIN,Matricaria inodora [15]; 80 g/ha,90%
same,post-emergence efficacy MATIN,Matricaria inodora [15]; 320 g/ha,100%
same,post-emergence efficacy ECHCG,Echinochloa crus-galli [16]; 80 g/ha,100%
same,post-emergence efficacy ECHCG,Echinochloa crus-galli [16]; 320 g/ha,100%
same,post-emergence efficacy STEME,Stellaria media [17]; 80 g/ha,90%
same,post-emergence efficacy STEME,Stellaria media [17]; 320 g/ha,100%
same,post-emergence efficacy SETVI,Setaria viridis [18]; 80 g/ha,90%
same,post-emergence efficacy SETVI,Setaria viridis [18]; 320 g/ha,90%
same,post-emergence efficacy ABUTH,Abutilon theophrasti [19]; 80 g/ha,100%
same,post-emergence efficacy ABUTH,Abutilon theophrasti [19]; 320 g/ha,100%
same,post-emergence efficacy ALOMY,Alopecurus myosuroides [20],90%
same,post-emergence efficacy POLCO,Polygonum convolvulus [21]; 80 g/ha,90%
same,post-emergence efficacy POLCO,Polygonum convolvulus [21]; 320 g/ha,90%
same,post-emergence efficacy AVEFA,Avena fatua [22],80%
same,post-emergence efficacy VERPE,Veronica persica [23]; 80 g/ha,80%
same,post-emergence efficacy VERPE,Veronica persica [23]; 320 g/ha,90%
Nc1nc(NC2CCc3sc(Cl)cc32)ncc1C(F)(F)F (racemic) [compound 256],logP (HCOOH),logP (HCOOH),"solid; logP (HCOOH): 2.30; 1H NMR (CDCl3, 400 MHZ, δ in ppm): 2.15 (m, 1H, 1H"
same,VIOTR pre-emergence efficacy (herbicidal activity),Viola tricolor [1]; Dosage 80 g/ha,100%
same,VIOTR pre-emergence efficacy (herbicidal activity),Viola tricolor [1]; Dosage 320 g/ha,100%
same,AMARE pre-emergence efficacy (herbicidal activity),Amaranthus retroflexus [2]; Dosage 80 g/ha,100%
same,AMARE pre-emergence efficacy (herbicidal activity),Amaranthus retroflexus [2]; Dosage 320 g/ha,100%
same,MATIN pre-emergence efficacy (herbicidal activity),Matricaria inodora [3]; Dosage 80 g/ha,100%
same,MATIN pre-emergence efficacy (herbicidal activity),Matricaria inodora [3]; Dosage 320 g/ha,100%
same,ECHCG pre-emergence efficacy (herbicidal activity),Echinochloa crus-galli [4]; Dosage 80 g/ha,100%
same,ECHCG pre-emergence efficacy (herbicidal activity),Echinochloa crus-galli [4]; Dosage 320 g/ha,100%
same,STEME pre-emergence efficacy (herbicidal activity),Stellaria media [5]; Dosage 80 g/ha,100%
same,STEME pre-emergence efficacy (herbicidal activity),Stellaria media [5]; Dosage 320 g/ha,100%
same,SETVI pre-emergence efficacy (herbicidal activity),Setaria viridis [6]; Dosage 80 g/ha,100%
same,SETVI pre-emergence efficacy (herbicidal activity),Setaria viridis [6]; Dosage 320 g/ha,100%
same,ABUTH pre-emergence efficacy (herbicidal activity),Abutilon theophrasti [7]; Dosage 320 g/ha,100%
same,ALOMY pre-emergence efficacy (herbicidal activity),Alopecurus myosuroides [8]; Dosage 80 g/ha,60%
same,ALOMY pre-emergence efficacy (herbicidal activity),Alopecurus myosuroides [8]; Dosage 320 g/ha,100%
same,LOLMU pre-emergence efficacy (herbicidal activity),Lolium multiflorum [9]; Dosage 320 g/ha,100%
same,POLCO pre-emergence efficacy (herbicidal activity),Polygonum convolvulus [10]; Dosage 80 g/ha,100%
same,POLCO pre-emergence efficacy (herbicidal activity),Polygonum convolvulus [10]; Dosage 320 g/ha,100%
same,AVEFA pre-emergence efficacy (herbicidal activity),Avena fatua [11]; Dosage 320 g/ha,100%
same,VERPE pre-emergence efficacy (herbicidal activity),Veronica persica [12]; Dosage 80 g/ha,100%
same,VERPE pre-emergence efficacy (herbicidal activity),Veronica persica [12]; Dosage 320 g/ha,100%
same,post-emergence efficacy PHBPU,Ipomoea purpurea; 320 g/ha,100%
same,post-emergence efficacy VIOTR,Viola tricolor [13]; 80 g/ha,90%
same,post-emergence efficacy VIOTR,Viola tricolor [13]; 320 g/ha,90%
same,post-emergence efficacy AMARE,Amaranthus retroflexus [14]; 80 g/ha,100%
same,post-emergence efficacy AMARE,Amaranthus retroflexus [14]; 320 g/ha,100%
same,post-emergence efficacy MATIN,Matricaria inodora [15]; 80 g/ha,100%
same,post-emergence efficacy MATIN,Matricaria inodora [15]; 320 g/ha,100%
same,post-emergence efficacy ECHCG,Echinochloa crus-galli [16]; 80 g/ha,100%
same,post-emergence efficacy ECHCG,Echinochloa crus-galli [16]; 320 g/ha,100%
same,post-emergence efficacy STEME,Stellaria media [17]; 80 g/ha,100%
same,post-emergence efficacy STEME,Stellaria media [17]; 320 g/ha,100%
same,post-emergence efficacy SETVI,Setaria viridis [18]; 80 g/ha,90%
same,post-emergence efficacy SETVI,Setaria viridis [18]; 320 g/ha,90%
same,post-emergence efficacy ABUTH,Abutilon theophrasti [19]; 80 g/ha,90%
same,post-emergence efficacy ABUTH,Abutilon theophrasti [19]; 320 g/ha,90%
same,post-emergence efficacy ALOMY,Alopecurus myosuroides [20],90%
same,post-emergence efficacy LOLMU,Lolium multiflorum [24],70%
same,post-emergence efficacy POLCO,Polygonum convolvulus [21]; 80 g/ha,90%
same,post-emergence efficacy POLCO,Polygonum convolvulus [21]; 320 g/ha,90%
same,post-emergence efficacy AVEFA,Avena fatua [22],70%
